Test results taken from patent EP4049726A1, “IMIDAZO[1,2-A]PYRAZINES AS INHIBITORS OF HASPIN AND THERAPEUTIC USES THEREOF” (Fundación del Sector Público Estatal Centro Nacional de …, priority 2021, dated 2022).

Biological target: T1, HASPIN (Homo sapiens, UniProt Q8TF76)
T1 sequence (Q8TF76 1-798): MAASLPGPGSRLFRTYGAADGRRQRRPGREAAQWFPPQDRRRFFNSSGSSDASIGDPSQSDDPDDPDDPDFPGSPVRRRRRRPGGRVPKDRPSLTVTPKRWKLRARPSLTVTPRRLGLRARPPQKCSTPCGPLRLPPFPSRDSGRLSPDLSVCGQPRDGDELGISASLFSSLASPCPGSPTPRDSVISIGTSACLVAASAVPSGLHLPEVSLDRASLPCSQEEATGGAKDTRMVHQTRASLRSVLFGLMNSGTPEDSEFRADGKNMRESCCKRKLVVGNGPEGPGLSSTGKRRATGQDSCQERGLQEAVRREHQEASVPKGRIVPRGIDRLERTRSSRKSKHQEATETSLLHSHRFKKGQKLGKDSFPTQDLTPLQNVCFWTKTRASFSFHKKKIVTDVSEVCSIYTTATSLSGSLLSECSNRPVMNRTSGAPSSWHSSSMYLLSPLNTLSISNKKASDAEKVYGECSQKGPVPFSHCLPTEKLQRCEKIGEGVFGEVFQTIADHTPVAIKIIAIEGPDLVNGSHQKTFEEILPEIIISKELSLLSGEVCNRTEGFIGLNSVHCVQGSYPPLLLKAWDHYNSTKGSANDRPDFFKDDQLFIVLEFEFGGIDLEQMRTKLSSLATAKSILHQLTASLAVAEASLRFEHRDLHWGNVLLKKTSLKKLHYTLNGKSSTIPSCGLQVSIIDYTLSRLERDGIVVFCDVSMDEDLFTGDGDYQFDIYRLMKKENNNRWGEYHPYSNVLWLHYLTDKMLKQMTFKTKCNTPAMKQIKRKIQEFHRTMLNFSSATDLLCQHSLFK
Assay: HASPIN biochemical assay (ADP-Glo, HASPIN autophosphorylation)
Conditions: ATP 150 µM, 60 min at 30 °C
Description: HASPIN biochemical Assay: The biochemical assay to measure HASPIN activity relies on the ADP-Glo™ assay kit (Promega) that determines the amount of ADP as direct product of the kinase enzyme activity. Assay conditions were as indicated by the kit manufacturers with the following adaptations for the kinase activity step: Kinase assay buffer and assay volume (15 mM HEPES pH 7.5, 20 mM NaCl, 1 mM EGTA, 0.02% TWEEN 20, 10 mM MgCl2, 0.1 mg/mL BGG)/25 µL assay volume). Incubation time and temperature: 60 min at 30 °C. HASPIN final concentration: 0.9 µg/mL. ATP final concentration: 150 µM. HASPIN autophosphorylation was measured. Assays were performed in 384-well plates. The final outcome of the coupled reactions provided by the kit is the release of […] and has been measured with a multilabel HTS counter Victor V / Envision. Values were normalized against the control activity included (100% HASPIN activity, without compound). Values were plotted against the inhibitor concentration and fit to a sigmoid dose-response curve using Activity base by IDBS software.

CNC(=O)c1nc2c(NCC3(F)CCNCC3)nc(-c3ccncc3)cn2c1C [Compound 14, 8-[(4-Fluoro-piperidin-4-ylmethyl)-amino]-3-methyl-6-pyridin-4-yl-imidazo[1,2-a]pyrazine-2-carboxylic acid methylamide]
IC50: 78 nM

N#CC1(CNc2nc(-c3ccnc(Cl)c3)cn3cc(C(N)=O)nc23)CCNCC1 [Compound 6, 6-(2-Chloro-pyridin-4-yl)-8-[(4-cyano-piperidin-4-ylmethyl)-amino]-imidazo[1,2-a]pyrazine-2-carboxylic acid amide]
IC50: 59.6 nM

CNC(=O)c1nc2c(NCC3(C#N)CCNCC3)nc(-c3ccnc(Cl)c3)cn2c1C [Compound 21, 6-(2-Chloro-pyridin-4-yl)-8-[(4-cyano-piperidin-4-ylmethyl)-amino]-3-methyl-imidazo[1,2-a]pyrazine-2-carboxylic acid methylamide]
IC50: 151 nM

N#CC1(CNc2nc(-c3ccncc3F)cn3cc(C(N)=O)nc23)CCNCC1 [Compound 29, 8-[(4-Cyano-piperidin-4-ylmethyl)-amino]-6-(3-fluoro-pyridin-4-yl)-imidazo[1,2-a]pyrazine-2-carboxylic acid amide]
IC50: 6.59 nM

Cc1c(C(N)=O)nc2c(NCC3(F)CCNCC3)nc(-c3ccncc3)cn12 [Compound 16, 8-[(4-Fluoro-piperidin-4-ylmethyl)-amino]-3-methyl-6-pyridin-4-yl-imidazo[1,2-a]pyrazine-2-carboxylic acid amide]
IC50: 96 nM

CNC(=O)c1nc2c(NCC3(C#N)CCNCC3)nc(-c3ccncc3)cn2c1C [Compound 17, 8-[(4-Cyano-piperidin-4-ylmethyl)-amino]-3-methyl-6-pyridin-4-yl-imidazo[1,2-a]pyrazine-2-carboxylic acid methylamide]
IC50: 18.2 nM

NC(=O)c1cn2cc(-c3ccncc3)nc(NCC3(O)CCNCC3)c2n1 [Compound 44, 8-[(4-Hydroxy-piperidin-4-ylmethyl)-amino]-6-pyridin-4-yl-imidazo[1,2-a]pyrazine-2-carboxylic acid amide]
IC50: 46.8 nM

CNC(=O)c1nc2c(NCC3CCNCC3)nc(-c3ccnc(Cl)c3)cn2c1C [Compound 11, 6-(2-Chloro-pyridin-4-yl)-3-methyl-8-[(piperidin-4-ylmethyl)-amino]-imidazo[1,2-a]pyrazine-2-carboxylic acid methylamide]
IC50: 65 nM

CNC(=O)c1nc2c(NCC3CCNCC3)nc(-c3ccncc3)cn2c1C [Compound 7, 3-Methyl-8-[(piperidin-4-ylmethyl)-amino]-6-pyridin-4-yl-imidazo[1,2-a]pyrazine-2-carboxylic acid methylamide]
IC50: 60 nM

CNC(=O)c1nc2c(NCC3CCNCC3)nc(-c3ccncc3F)cn2c1C [Compound 35, 6-(3-Fluoro-pyridin-4-yl)-3-methyl-8-[(piperidin-4-ylmethyl)-amino]-imidazo[1,2-a]pyrazine-2-carboxylic acid methylamide]
IC50: 94.8 nM

NC(=O)c1cn2cc(-c3ccns3)nc(NCC3(F)CCNCC3)c2n1 [Compound 46, 8-[(4-Fluoro-piperidin-4-ylmethyl)-amino]-6-isothiazol-5-yl-imidazo[1,2-a]pyrazine-2-carboxylic acid amide]
IC50: 85.6 nM

NC(=O)c1cn2cc(-c3ccncc3Cl)nc(NCC3CCNCC3)c2n1 [Compound 30, 6-(3-Chloro-pyridin-4-yl)-8-[(piperidin-4-ylmethyl)-amino]-imidazo[1,2-a]pyrazine-2-carboxylic acid amide]
IC50: 187 nM

NC(=O)c1cn2cc(-c3ccncc3)nc(NCC3CCNCC3)c2n1 [Compound 2, 8-[(Piperidin-4-ylmethyl)-amino]-6-pyridin-4-yl-imidazo[1,2-a]pyrazine-2-carboxylic acid amide]
IC50: 30 nM

Cc1c(C(N)=O)nc2c(NCC3CCNCC3)nc(-c3ccncc3)cn12 [Compound 9, 3-Methyl-8-[(piperidin-4-ylmethyl)-amino]-6-pyridin-4-yl-imidazo[1,2-a]pyrazine-2-carboxylic acid amide]
IC50: 180 nM

NC(=O)c1cn2cc(-c3ccncc3)nc(N[C@H]3CC[C@@H](N)CC3)c2n1 [Compound 39, 8-(cis-4-Amino-cyclohexylamino)-6-pyridin-4-yl-imidazo[1,2-a]pyrazine-2-carboxylic acid amide]
IC50: 140 nM

NC(=O)c1cn2cc(-c3ccncc3)nc(NCC3(F)CCNCC3)c2n1 [Compound 15, 8-[(4-Fluoro-piperidin-4-ylmethyl)-amino]-6-pyridin-4-yl-imidazo[1,2-a]pyrazine-2-carboxylic acid amide]
IC50: 25.9 nM

CNC(=O)c1cn2cc(-c3ccncc3F)nc(NCC3CCNCC3)c2n1 [Compound 28, 6-(3-Fluoro-pyridin-4-yl)-8-[(piperidin-4-ylmethyl)-amino]-imidazo[1,2-a]pyrazine-2-carboxylic acid methylamide]
IC50: 19.5 nM

CNC(=O)c1cn2cc(-c3ccncc3Cl)nc(NCC3CCNCC3)c2n1 [Compound 31, 6-(3-Chloro-pyridin-4-yl)-8-[(piperidin-4-ylmethyl)-amino]-imidazo[1,2-a]pyrazine-2-carboxylic acid methylamide]
IC50: 189 nM

Cc1c(C(N)=O)nc2c(NCC3(C#N)CCNCC3)nc(-c3ccnc(Cl)c3)cn12 [Compound 24, 6-(2-Chloro-pyridin-4-yl)-8-[(4-cyano-piperidin-4-ylmethyl)-amino]-3-methyl-imidazo[1,2-a]pyrazine-2-carboxylic acid amide]
IC50: 111 nM

Cc1c(C(N)=O)nc2c(NCC3(F)CCNCC3)nc(-c3ccnc(Cl)c3)cn12 [Compound 25, 6-(2-Chloro-pyridin-4-yl)-8-[(4-fluoro-piperidin-4-ylmethyl)-amino]-3-methyl-imidazo[1,2-a]pyrazine-2-carboxylic acid amide]
IC50: 157 nM

COCCNC(=O)c1cn2cc(-c3ccncc3)nc(NCC3CCNCC3)c2n1 [Compound 5, 8-[(Piperidin-4-ylmethyl)-amino]-6-pyridin-4-yl-imidazo[1,2-a]pyrazine-2-carboxylic acid (2-methoxy-ethyl)-amide]
IC50: 229 nM

COCCNC(=O)c1nc2c(NCC3(C#N)CCNCC3)nc(-c3ccncc3)cn2c1C [Compound 18, 8-[(4-Cyano-piperidin-4-ylmethyl)-amino]-3-methyl-6-pyridin-4-yl-imidazo[1,2-a]pyrazine-2-carboxylic acid (2-methoxy-ethyl)-amide]
IC50: 138 nM

Cc1c(C(N)=O)nc2c(NCC3CCNCC3)nc(-c3ccnc(Cl)c3)cn12 [Compound 12, 6-(2-Chloro-pyridin-4-yl)-3-methyl-8-[(piperidin-4-ylmethyl)-amino]-imidazo[1,2-a]pyrazine-2-carboxylic acid amide]
IC50: 253 nM

CNC(=O)c1nc2c(NCC3(F)CCNCC3)nc(-c3ccnc(Cl)c3)cn2c1C [Compound 20, 6-(2-Chloro-pyridin-4-yl)-8-[(4-fluoro-piperidin-4-ylmethyl)-amino]-3-methyl-imidazo[1,2-a]pyrazine-2-carboxylic acid methylamide]
IC50: 78.8 nM

Cc1c(C(N)=O)nc2c(NCC3(C#N)CCNCC3)nc(-c3ccncc3)cn12 [Compound 19, 8-[(4-Cyano-piperidin-4-ylmethyl)-amino]-3-methyl-6-pyridin-4-yl-imidazo[1,2-a]pyrazine-2-carboxylic acid amide]
IC50: 45.7 nM

NC(=O)c1cn2cc(-c3ccnc(N)c3)nc(NCC3(F)CCNCC3)c2n1 [Compound 41, 6-(2-Amino-pyridin-4-yl)-8-[(4-fluoro-piperidin-4-ylmethyl)-amino]-imidazo[1,2-a]pyrazine-2-carboxylic acid amide]
IC50: 34.5 nM
